The values that follow come from patent US9968574B2, “Treatment of MCI and Alzheimer's disease” (The University of Kentucky Research Foundation, priority 2009, dated 2018).

The test system of data set [1] is H4 neuroglioblastoma cells stably transfected to overexpress amyloid precursor protein (APP). Kind of data set: Aβ1-42 secreted into medium by H4 cells overexpressing APP, ELISA. Format: cell-based. As to the method: H4 neuroglioblastoma cells stably transfected with a construct overexpressing amyloid precursor protein (APP) secret Aβ1-42 into the culture medium. […] The Aβ levels in the culture medium were measured using ELISAs (Invitrogen).
We then tested if other calcium channel blockers can inhibit Aβ 1-42 generation in H4 neuroglioma cultures. Known calcium channel blockers such as Amilodpine, Dilitiazem, Felodipine, Isradipine, Nicardipine, and Nimodipine were used in this experiment.
On the technique in general: ELISA stands for enzyme-linked immunosorbent assay.

Data set [2] has as its system H4 neuroglioma cultures that overexpress APP. Kind of data set: Levels of enzymes involved in Aβ processing in H4 cultures overexpressing APP, immunohistochemistry. It counts as cell-based. As to the method: Following treatment, cultures were rinsed three times in PBS and fixed in 70% methanol/30% acetone for 30 minutes at −20° C. Cultures were then subjected to immunohistochemistry for BACE, PS-1, GPCR-3, nicastrin, and ADAM (the enzyme responsible for alpha secretase cleavage). 30 to 50 cells were imaged in 4-5 fields/dish (3 dishes each treatment) (FIG. 22). […] Alpha secretase cleavage leads to decreased Aβ1-42.
Using a similar procedure as described in Example 13, H4 neuroglioma cultures were treated with NFD-L1 to determine the effects of NFD-L1 on levels of enzymes involved in Aβ processing.

Another data set deals with T1, beta secretase (BACE) (Homo sapiens, UniProt P56817).
T1 construct: purchased Invitrogen
T1 sequence (P56817 46-501): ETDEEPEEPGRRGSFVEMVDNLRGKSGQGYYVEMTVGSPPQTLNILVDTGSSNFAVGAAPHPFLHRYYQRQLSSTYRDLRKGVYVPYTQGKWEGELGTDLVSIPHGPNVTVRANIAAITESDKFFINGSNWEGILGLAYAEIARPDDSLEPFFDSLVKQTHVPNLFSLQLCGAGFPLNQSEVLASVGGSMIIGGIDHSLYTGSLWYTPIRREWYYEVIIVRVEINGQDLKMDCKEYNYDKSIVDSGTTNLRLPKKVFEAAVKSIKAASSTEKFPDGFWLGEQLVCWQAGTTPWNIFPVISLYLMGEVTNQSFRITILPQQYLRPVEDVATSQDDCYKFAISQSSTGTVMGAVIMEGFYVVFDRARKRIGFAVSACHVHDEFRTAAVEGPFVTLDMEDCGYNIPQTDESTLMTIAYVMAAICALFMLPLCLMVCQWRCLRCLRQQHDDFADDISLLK
The experiment in a line: BACE activity, fluorescent substrate and purified recombinant BACE (Invitrogen kit). It counts as biochemical. Here is the method: BACE activity was measured using a fluorescent substrate and purified recombinant BACE as part of a commercial kit from Invitrogen.
Using a similar procedure as described in Example 8, NFD-L1 was tested for inhibition of BACE activity.

A further data set relates to Human astrocytoma cells. Kind of data set: Inflammatory cytokine ELISAs in astrocytoma cultures. It counts as cell-based. As to conditions: for IL-1 secreted in the medium / IL-6 secreted in the medium / TNF-α secreted in the medium: 24 hours. As to the method:
Following exposure medium was collected from each well and levels of inflammatory cytokines ([…], TNF-α, TGF-β and […]) were determined using commercially available ELISAs.
It was reported that inflammatory response elements (cytokines) are elevated in Alzheimer's disease patients. The inventors tested the nifedipine mix and individual analogs in astrocytoma cultures. Human astrocytoma cells were plated at 2.5×10^5 cells/well in 6 well culture plates and were grown for 24 hours. […] Three 6-well plates were subjected to each treatment. Following treatment, medium was collected from each well and levels of IL-1β, IL-6, TNF-α and TGF-β were measured using commercially available ELISAs.
Using a similar procedure to that described in Example 3, NFD-L1 was tested in astrocytoma cultures.

A further data set relates to mice. Kind of data set: Aβ and Aβ processing proteins in mice, ELISA and Western blot. Format: in vivo, mouse. As to conditions: IP injections (nitroso-nifedipine 35 mg/kg, 3 days). Here is the method:
It is contemplated that increased ADAM-10 levels lead to increased cleavage at the alpha secretase position of APP, minimizing generation of Aβ.
The effects of NFD-L1 on levels of enzymes involved in Aβ processing in vivo were determined using a similar procedure to that described in Example 15.

Data set [3] deals with PDS/TTR complex. Kind of data set: PDS/TTR complex expressed into culture medium by choroid plexus epithelial cells, Western blot. Format: cell-based, human. Particulars: control epithelial cells, 5 μM acrolein, 72 hours. For orientation: A western blot detects proteins with antibodies after separation by electrophoresis.
Method: For these experiments, primary cultures of choroid plexus epithelial cells were established from short post mortem interval autopsies using established methods. AD and normal control cultures were grown to confluence in MEM growth medium containing 2% fetal bovine serum and 1% epithelial growth factor (EGF). Normal control cultures were switched to Opti-MEM containing N2 supplement and were treated with vehicle (controls) or with 5 μM acrolein for 72 hours. […] After treatment, medium was collected from each flask and was desalted using PD-10 columns. The eluted proteins were then freeze-dried, resuspended in 25 μl water and analyzed using Western blot analysis and antibodies specific to PDS and TTR.
The amount of PDS/TTR secreted into the culture medium by each culture was determined by Western blot analysis as described above.
The test system of data set [4] is PDS/TTR complex. The experiment in a line: PDS/TTR-positive epithelial cells by immunostaining. It counts as cell-based, human. As to conditions: acrolein alone. The text has this:
In addition, immunostaining was used to determine the PDS/TTR-positive cells and the numbers of PDS/TTR-positive cells from treated and untreated cell cultures were counted and compared.

The test system of data set [5] is orphan G-coupled receptor protein 3 (GPCR-3). As to conditions: H4 cells, 1 μM (0.5 μM T3/0.5 μM T4), 16 hours. As to the method: Levels of GPCR-3 were measured using Western blot analysis using a GPCR-3 specific antibody.
Data set [6] has the same test system. As to conditions: mice of Example 10. Here is the method:
(§1) Based on the in vitro data described above, the inventors initiated an acute exposure study in 3 month old C57-Black-6 (C57BL/6) mice.
In addition, GPCR-3 levels were determined in the C57BL/6 mice described above in Example 10 using Western blot analysis.

Data set [7] deals with C57/B16 mice. Kind of data set: EAAT2 in tissue of treated mice, Western blot. Format: in vivo, mouse. Particulars: 25 mg/kg, 3 days.
Data set [8] can be described thus: Liver toxicity study: serum alkaline phosphatase in mice. It counts as in vivo, mouse.
In data set [9] the test system is H4 neuroglioma cultures. The experiment in a line: Calcium influx after KCl depolarization in H4 cultures, Fluo-4 AM confocal microscopy. It counts as cell-based. As to conditions: 1 μM nifedipine or […] nitroso-nifedipine, 1 hour. As to the method:
Cells were depolarized by addition of 40 μL 100 mM KCl and calcium levels quantified 30 seconds following depolarization by confocal microscopy (n=75-100 cells/dish for 3 dishes/treatment).

For data set [10], the system named is C57/B16 mice. Kind of data set: Brain Aβ1-40 in mice given nitroso-nifedipine IP, Covance ELISA. Format: in vivo, mouse. As to conditions: 35 mg/kg IP, 3 days. As to the method: The animals were sacrificed 15 minutes following the final injection. Brains were quickly removed, split into hemispheres, and snap frozen in liquid nitrogen. Brains were shipped on dry ice and maintained at −80° C. until used for analysis. One hemisphere of each brain was homogenized in diethylamine (200 mg wet weight/mL) containing complete protease inhibitors using a Dounce homogenizer. Homogenate was centrifuged at 16,000×g for 30 minutes and 50 μL soluble protein subjected to Aβ1-40 quantification using a Covance ELISA per manufacturer's instructions. Results are expressed as % vehicle treated animals.

The subject of data set [11] is H4 neuroglioma cultures. The experiment in a line: Survival of H4 cells, MTT reduction. Particulars: increasing concentrations, 16 hours. Format: cell-based. As to the method: Specifically, H4 neuroglioma cultures were plated at a density of 2.5×10^5 cells/well and allowed to attach overnight. […] Following treatment, MTT was added at a final concentration of 0.5 mg/mL and cultures incubated for 30 minutes. Following MTT treatment, medium was removed and the formazan crystals generated by mitochondrial conversion of MTT were dissolved in DMSO and absorbance was measured at 650 nm. Data are reported as mean±SEM % control MTT reduction (FIG. 21).

The conditions of data set [12]: mouse, in vivo.
Text: as §1

Entries after “also recorded” stand apart in the source; their conditions may differ. Like-named read-outs stand apart in the source and are kept apart here.

With `COc1ccc([C@@H]2Sc3ccccc3N(CCN(C)C)C(=O)[C@@H]2OC(C)=O)cc1` [Dilitiazem, reference compound], the “Aβ formation, calcium channel blocker combined with T3/T4” value in data set [1] (1 μM with T3/T4, 16 hours) is given as “significant decrease”.

As for `COC(=O)c1c(C)nc(C)c2c(=O)[nH]c3ccccc3c12` [NFD-L1], in [2], the ADAM-10 level entry is reported as “significant increase”, the BACE protein level result is listed as “significant decrease”, the PS-1 level entry is listed as “significant decrease” and the “nicastrin (NCT) level” value is “significant decrease”. Besides, at beta secretase (BACE) (agent alone), the BACE activity entry is given as “significantly inhibits”. For the same molecule, in the data set with Human astrocytoma cells, the inflammatory cytokine production result is on record as “inhibited”, the “IL-1 secreted in the medium” value was “significantly reduced”, the “IL-6 secreted in the medium” value is recorded as “significantly reduced” and the “TNF-α secreted in the medium” value is “significantly reduced”. Further, in the data set with mice, the ADAM-10 level entry was “significant increase”, the Aβ1-40 level result is “significant decrease”, the “cleaved Notch-1 level” value is “significant increase” and the presenilin-1 level entry was “significant decrease”. Also, the “Aβ 1-42 generation” value in data set [1] (procedure similar to Example 6) is reported as “inhibited”.

Turning to `C=CC=O` [acrolein], the “expression of the PDS/TTR complex in culture medium” value in the data set on PDS/TTR complex [3] is “increased”. Further, in the data set with PDS/TTR complex [4], the “number of PDS/TTR-positive cells, % of untreated control” value was “about 600%”.

For the molecule `COC(=O)C1=C(C)NC(C)=C(C(=O)OC)C1c1ccccc1[N+](=O)[O-]` [nifedipine, 1,4-dihydro-2,6-dimethyl-4-(2-nitrophenyl)-3,5-pyridinedicarboxylic acid dimethyl ester], the GPCR-3 expression level entry in [5] is “significantly reduced”; in data set [6], “reduced”. Besides, the BACE activity entry at beta secretase (BACE) (agent alone) and at beta secretase (BACE) (in combination with thyroxine) was “slightly inhibited” in each case. The EAAT2 level result in the data set on C57/B16 mice [7] is on record as “significant increase”.

As for `COC(=O)c1c(C)nc(C)c(C(=O)OC)c1-c1ccccc1N=O` [nitroso-nifedipine, 2,6-dimethyl-4-(2-nitrosophenyl)-3,5-pyridinedicarboxylic acid dimethyl ester], in data set [8] (35 mg/kg), the “serum alkaline phosphatase level” value is reported as “significant decrease”. For the same molecule, the “serum alkaline phosphatase level” value in data set [8] (any dose) is recorded as “did not significantly increase”. The liver damage entry in data set [8] (mice) is “does not induce liver damage”. For the same molecule, the “Ca influx following depolarization” value with H4 neuroglioma cultures [9] was “significant increase”. Further, in the data set with C57/B16 mice [10], the “levels of Aβ1-40, % vehicle treated animals” value is “significant decrease”. Moreover, in data set [2], the ADAM-10 level entry is “significant increase”, the BACE protein level result was “significant decrease”, the GPCR-3 level result is “significant increase” and the PS-1 level entry was “did not significantly alter”. In addition, the “nicastrin (NCT) level” value in [2] is “did not significantly alter”. The “resistance (survival) of H4 cultures compared to nifedipine” value in the data set on H4 neuroglioma cultures [11] is reported as “more resistant”. The BACE activity entry on beta secretase (BACE) (agent alone) is “significant inhibition; also recorded: significantly inhibits”. In addition, on beta secretase (BACE) (in combination with thyroxine), the BACE activity result is recorded as “significant inhibition”. In the data set on mice, the ADAM-10 level entry was “significant increase”, the Aβ1-40 level entry was “significant decrease”, the “cleaved Notch-1 level” value is listed as “significant increase” and the presenilin-1 level result is “significant decrease”.

Consider `COC(=O)c1c(C)nc(C)c(C(=O)OC)c1-c1ccccc1[N+](=O)[O-]` [oxidized nifedipine, 2,6-dimethyl-4-(2-nitrophenyl)-3,5-pyridinedicarboxylic acid dimethyl ester], for which, in data set [12], the “presence in brain extracts (passing the blood-brain barrier)” value was “found in all samples analyzed”. Also, in the data set with Human astrocytoma cells, the “IL-1 secreted in the medium” value is “significantly reduced”, the “IL-6 secreted in the medium” value is recorded as “significantly reduced” and the “TNF-α secreted in the medium” value is “significantly reduced”.
